Measured values as given in patent publication US10336788B2, “Inhibition of cardiac fibrosis in myocardial infarction” (Moerae Matrix, Inc., priority 2014, dated 2019).
No end group written: not given here.

How the values were obtained:
C57BL/6 mice = test: Survival analysis (Kaplan-Meier) after permanent LAD ligation or daily peptide; type: in vivo, mouse
From the text: Nature Medicine. […] Nature. 2012; 485:593-8]. […] Proc Natl Acad Scie USA. […] Circulation Res. 2009; 105:80-8].
SigmaPlot (Systat Software, Inc., San Jose, Calif.) was used to determine significant statistical differences using a Log-rank (Mantel-Cox) test to determine differences in survival or a Kruskal-Wallis one-way ANOVA for both in vivo and in vitro studies at each terminal time point in experiments run in parallel. If significance was reached (p<0.05), a post-hoc all pairwise Multiple Comparison Procedures (Tukey Test) was performed between each of the groups to determine significance. Significance was defined as p<0.05.

[1] = tested on: abdominal adhesions post-surgery; details: Ward et al. 2011; cited from earlier work
H9C2 cells = test: LDH release assay in H9C2 cells (1% hypoxia or normoxia); type: cell-based, rat; details: for LDH release: 1% hypoxia
Experimental: H9C2 is a myoblast cell line derived from rat myocardium obtained from ATCC® (CRL-1446, ATCC, Manassas, Va.) and cultured according to the recommended protocols. Briefly, cells were maintained at 37° C. with 5% CO2 in DMEM supplemented with 10% fetal bovine serum and antibiotics (100 U/ml penicillin, […] streptomycin) and split at a ratio of 1:4 using 0.05% trypsin every 36 hours. HL-1 cells were obtained from Dr. William Claycomb and cultured according to the published protocols [Claycomb W C, Lanson N A, Jr., Stallworth B S, Egeland D B, Delcarpio J B, Bahinski A, et al. HL-1 cells: a cardiac muscle cell line that contracts and retains phenotypic characteristics of the adult cardiomyocyte. Proc. Natl Acad. Sci. USA. 1998; 95:2979-84; White S M, Constantin P E, Claycomb W C. Cardiac physiology at the cellular level: use of cultured HL-1 cardiomyocytes for studies of cardiac muscle cell structure and function. Am. J. Physiol. Heart Circul. Physiol. 2004; 286:H823-9]. […]
Cells were rinsed in PMS and grown in DMEM (cat. #11966-025, Gibco) for 2 hours prior to initiating hypoxia (simulated ischemia). […] Three different time points were adopted for each of the three cell lines according to the severity of cell death under hypoxia determined by LDH release: for H9C2 cell line: 8 hr; 16 hr; 24 hr; for HL-1 cell line: 4 hr; 8 hr; 12 hr; for cardiac fibroblast cell line: 16 hr; 32 hr; 48 hr.
Cell death was first determined using an LDH release assay (cat. #630117, Clontech), according to the manufacturer's instructions. […] Caspase 3/7 activity was next determined using a commercial Caspase 3/7 activity kit (Cat. #G8091, Promega, Madison, Wis. 53711) in a 384 well plate (Cat. #781903, Greiner bio-one) according to the manufacturer's instructions. […] The resulting cell lysates (25 μl, with 0.6 ug total protein) and Caspase-Glo 3/7 Reagent were added to each well in a 1:1 ratio and the luminescence was read (CLARIOstar, BMG LABTECH GmbH). […]

MK2 = test: Immunoblot analysis of MK2 activity (HNRNPA0, total MK2, p-MK2) in H9C2 cells; type: cell-based, rat
Experimental: Cells were rinsed in PMS and grown in DMEM (cat. #11966-025, Gibco) for 2 hours prior to initiating hypoxia (simulated ischemia). Hypoxia was induced by placing cells in a hypoxia chamber ([…] 150i, Thermo Scientific) in a mixture of 5% CO2/95% N2 to attain a 1% oxygen concentration, according to the manufacturer's instruction. […] The MMI-0100 peptide was added to the cells at the start of the ischemia time. Cells were cultured in 12 well plates. At the time of performing the experiments, all cultures were approximately 70-90% confluent. Three different time points were adopted for each of the three cell lines according to the severity of cell death under hypoxia determined by LDH release: for H9C2 cell line: 8 hr; 16 hr; 24 hr; for HL-1 cell line: 4 hr; 8 hr; 12 hr; for cardiac fibroblast cell line: 16 hr; 32 hr; 48 hr.
The left over cell lysates from the Caspase activity assay were used for the Western blots. […] After blocking with recommended blocking reagents for 1 h at the room temperature, the membranes were incubated overnight at 4° C. with primary antibodies in TBS-T, and then incubated with secondary antibodies conjugated with HRP in TBS-T. HNRNPA0, MAPK2, and phospho-MAPK2 proteins were detected using anti-HNRNPA0 (cat. #HPA036569, 1:1000, Sigma-Aldrich), anti-MAPKAPK2 (cat. #SAB4300553, Sigma-Aldrich), and anti-phospho-MAPKAPK2 (cat. #SAB4300241, 1:1000, Sigma-Aldrich). […]

[2] = tested on: pharmacologically relevant receptors; test: Cellular functional assays on pharmacologically relevant receptors; type: cell-based; details: data not shown

Sequence: YARAAARQARAKALARQLGVAA [MMI-0100]
- survival after AMI with or without MMI-0100 treatment (C57BL/6 mice; AMI mice, daily intraperitoneal dosing, 14 days): no differences in survival
- effect on survival, MMI-0100 alone (C57BL/6 mice; mice without AMI, daily MMI-0100 intraperitoneally vs PBS): did not have any effect
- abdominal adhesions post-surgery [1]: inhibiting
- LDH release (H9C2 cells; 100 μM only, 16 hours): enhanced
- LDH release (H9C2 cells; 20 and 100 μM, 8 hours): significantly enhanced
- LDH release in normoxic conditions (H9C2 cells; absence of hypoxia, 8 hours): did not enhance LDH release
- HNRNPA0 expression (MK2; 100 μM, after induction by hypoxia): significantly inhibited
- total MK2 and p-MK2 protein levels (MK2; 20 or 100 μM, 1% hypoxia): not changed
- effect on pharmacologically relevant receptors in cellular functional assays [2]: no substantial effect
